In patent US20240018146A1, “COMPOSITIONS AND METHODS OF USING THE SAME FOR TREATMENT OF NEURODEGENERATIVE AND MITOCHONDRIAL DISEASE” (MITOKININ, INC., priority 2020, published 2024):
Like-named read-outs stand apart in the source and are kept apart here.

Key:
HeLa MKYP cells [1] = experiment: Cell death measured by DAPI staining, with 1 μM FCCP/oligomycin or no toxin (no FO); type: cell-based
Summary of the method: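 HeLa MKYP cells were treated with compounds alongside 1 μM FCCP/oligomycin or no toxin for 6 or 6.5 h. Cell death was scored by DAPI staining, with H2O2 treatment as the death control.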

HeLa MKYP cells [2] = experiment: Human mitophagy assay (HeLa mKeima assay, FACS); type: cell-based; conditions: read-out: Mitophagy induction EC50
Summary of the method: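 HeLa cells carrying the pH-sensitive mtKeima tag incubated 16 h with compound at several concentrations, then 1 uM FCCP/oligomycin for 6 h. FACS detects mitochondria in lysosomes through the Keima emission shift, quantified as percentage of cells in mitophagy.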

| SMILES | Highest safe dose (cytotoxicity; no FO; safe means DAPI+ <20%) (HeLa MKYP cells [1]) [µM] | Max % death with 1 μM FO (HeLa MKYP cells [1]) [%] | EC50 (HeLa MKYP cells [2]; Homo sapiens, HeLa) [µM] | EC50 (HeLa MKYP cells [2]) [µM] |
| --- | --- | --- | --- | --- |
| FC(F)(F)c1cc2c(N[C@H]3c4ccccc4CC[C@H]3C3CCOCC3)ncnc2[nH]1 [EP-0040557] | 25.0 | 2.7 | > 25 | – |
| FC(F)(F)c1cc2c(N[C@@H]3c4ccccc4CC[C@@H]3C3CCOCC3)ncnc2[nH]1 [EP-0040558] | 25.0 | 3.0 | > 25 | – |
| FC(F)(F)c1cc2c(N[C@H]3c4ccccc4OC[C@H]3C3CCOCC3)ncnc2[nH]1 [EP-0040586] | 8.3 | 16.9 | > 25 | – |
| FC(F)(F)c1cc2c(NC3c4ccccc4CCC3N3CCC4(CCOC4)CC3)ncnc2[nH]1 (stereo not drawn) [EP-0040589] | 25.0 | 19.4 | > 25 | – |
| c1ccc2c(c1)CC[C@@H](C1CCOCC1)[C@H]2Nc1ncnc2[nH]c(C3CC3)cc12 [EP-0040626] | 25.0 | 29.3 | 7.11 | – |
| c1ccc2c(c1)CC[C@H](C1CCOCC1)[C@@H]2Nc1ncnc2[nH]c(C3CC3)cc12 [EP-0040627] | 25.0 | 4.8 | 24.4 | – |
| [O-][S+]1CCN(C2CCc3ccccc3C2Nc2ncnc3[nH]c(C4CC4)cc23)CC1 (stereo not drawn) [EP-0040665] | 25.0 | 3.7 | 9.86 | – |
| Fc1ccc2c(c1)CC[C@@H](N1C[C@@H]3COC[C@H]3C1)[C@@H]2Nc1ncnc2[nH]c(C(F)(F)F)cc12 [EP-0040696] | 25.0 | 14.9 | 23.4 | – |
| c1ccc2c(c1)CC[C@@H](C1CCOCC1)[C@@H]2Nc1ncnc2[nH]c(C3CC3)cc12 [EP-0040727] | 25.0 | 7.7 | 2.85 | – |
| c1ccc2c(c1)OC[C@H](C1CCOCC1)[C@H]2Nc1ncnc2[nH]c(C3CC3)cc12 [EP-0040728] | 25.0 | 3.7 | 9.4 | – |
| c1ccc2c(c1)OC[C@@H](C1CCOCC1)[C@H]2Nc1ncnc2[nH]c(C3CC3)cc12 [EP-0040730] | 25.0 | 8.3 | > 25 | – |
| c1ccc2c(c1)OC[C@H](C1CCOCC1)[C@@H]2Nc1ncnc2[nH]c(C3CC3)cc12 [EP-0040731] | 25.0 | 2.7 | > 25 | – |
| c1ccc2c(c1)CC[C@@H](N1C[C@H]3COC[C@@H]3C1)[C@@H]2Nc1ncnc2[nH]c(C3CC3)cc12 [EP-0040767] | 25.0 | 7.9 | > 25 | – |
| COC1CN([C@@H]2CCc3ccccc3[C@H]2Nc2ncnc3[nH]c(C(F)(F)F)cc23)C1 [EP-0040858] | 25.0 | 6.6 | ≥ 28.8 | – |
| C[C@@H]1CN([C@H]2COc3ccccc3[C@@H]2Nc2ncnc3[nH]c(C(F)(F)F)cc23)C[C@H](C)O1 [EP-0040942] | 25.0 | 4.7 | > 25 | – |
| C[C@@H]1CN([C@H]2COc3ccccc3[C@@H]2Nc2ncnc3[nH]c(C(F)(F)F)cc23)CCO1 [EP-0040955] | 25.0 | 3.4 | > 25 | – |
| C[C@@H]1CN([C@H]2COc3ccccc3[C@@H]2Nc2ncnc3[nH]c(C4CC4)cc23)CCO1 [EP-0040957] | 25.0 | 3.8 | 22.8 | – |
| C[C@H]1CN([C@H]2COc3ccccc3[C@@H]2Nc2ncnc3[nH]c(C(F)(F)F)cc23)CCO1 [EP-0040979] | 25.0 | 4.0 | > 25 | – |

| SMILES | Highest safe dose (cytotoxicity; no FO; safe means DAPI+ <20%) (HeLa MKYP cells [1]) [µM] | Max % death with 1 μM FO (HeLa MKYP cells [1]) [%] | EC50 (HeLa MKYP cells [2]; Homo sapiens, HeLa) [µM] | EC50 (HeLa MKYP cells [2]) [µM] |
| --- | --- | --- | --- | --- |
| C[C@H]1CN([C@H]2COc3cc(F)ccc3[C@@H]2Nc2ncnc3[nH]c(C(F)(F)F)cc23)CCO1 [EP-0040981] | 25.0 | 7.0 | 2.44 | – |
| C[C@H]1CN([C@@H]2COc3cc(F)ccc3[C@H]2Nc2ncnc3[nH]c(C(F)(F)F)cc23)CCO1 [EP-0040982] | 25.0 | 6.1 | 7.62 | – |
| C[C@H]1CN([C@@H]2COc3ccccc3[C@H]2Nc2ncnc3[nH]c(C4CC4)cc23)CCO1 [EP-0041000] | 25.0 | 6.5 | 1.32 | – |
| FC(F)(F)c1cc2c(N[C@@H]3c4ccccc4OC[C@H]3C3CCCOC3)ncnc2[nH]1 (stereo partly drawn) [EP-0041003] | 25.0 | 5.3 | > 25 | – |
| C[C@@H]1CN([C@H]2COc3cc(F)ccc3[C@@H]2Nc2ncnc3[nH]c(C(F)(F)F)cc23)CCO1 [EP-0041087] | 25.0 | 5.1 | 9.38 | – |
| C[C@@H]1CN([C@@H]2COc3cc(F)ccc3[C@H]2Nc2ncnc3[nH]c(C4CC4)cc23)CCO1 [EP-0041123] | 25.0 | 7.3 | 11 | – |
| C[C@H]1CN([C@H]2COc3cc(F)ccc3[C@@H]2Nc2ncnc3[nH]c(C4CC4)cc23)CCO1 [EP-0041124] | 25.0 | 12.7 | 5.32 | – |
| OC(C1CCOCC1)[C@H]1COc2ccccc2[C@@H]1Nc1ncnc2[nH]c(C(F)(F)F)cc12 (stereo partly drawn) [EP-0041135] | 25.0 | 15.7 | 1.53 | – |
| CO[C@@H]1CCN([C@@H]2COc3ccccc3[C@H]2Nc2ncnc3[nH]c(C(F)(F)F)cc23)C1 [EP-0041162] | 25.0 | 4.2 | > 25 | – |
| CO[C@H]1CCN([C@@H]2COc3ccccc3[C@H]2Nc2ncnc3[nH]c(C(F)(F)F)cc23)C1 [EP-0041173] | 25.0 | 6.1 | 4.09 | – |
| COCC1CC([C@H]2COc3ccccc3[C@@H]2Nc2ncnc3[nH]c(C(F)(F)F)cc23)C1 (stereo partly drawn) [EP-0041260] | 25.0 | 10.2 | 0.85 | – |
| N#CC1CN([C@H]2COc3ccccc3[C@@H]2Nc2ncnc3[nH]c(C(F)(F)F)cc23)C1 [EP-0041332] | 25.0 | 11.7 | 1.54 | – |
| CC(C)OC1CN([C@H]2COc3ccccc3[C@@H]2Nc2ncnc3[nH]c(C(F)(F)F)cc23)C1 [EP-0041465] | 25.0 | 4.6 | 6.85 | – |
| COC(C)(C)C1CN([C@H]2COc3ccccc3[C@@H]2Nc2ncnc3[nH]c(C(F)(F)F)cc23)C1 [EP-0041480] | 25.0 | 4.6 | 2.69 | – |
| CS(=N)(=O)C1CN(C2COc3ccccc3C2Nc2ncnc3[nH]c(C(F)(F)F)cc23)C1 (stereo not drawn) [EP-0041496] | 25.0 | 3.4 | > 25 | – |
| CO[C@H]1CCN([C@@H]2COc3ccccc3[C@H]2Nc2ncnc3[nH]c(C4CC4)cc23)C1 [EP-0041518] | 25.0 | 7.4 | > 25 | – |
| COC[C@H]1CCN([C@H]2COc3ccccc3[C@@H]2Nc2ncnc3[nH]c(C4CC4)cc23)C1 [EP-0041547] | 25.0 | 8.2 | – | 7.29 |
| COC[C@H]1CCCN1[C@H]1COc2ccccc2[C@@H]1Nc1ncnc2[nH]c(C(F)(F)F)cc12 [EP-0041553] | 25.0 | 5.7 | 15.2 | – |
